BindingDB's records for doi:10.1007/s12154-010-0040-8 (Svims University, 2010)
pIC50: −log10 of the molar value.

The molecules below were run against T1, UDP-N-acetylmuramoylalanine--D-glutamate ligase (Leptospira interrogans serogroup Icterohaemorrhagiae serovar Lai (strain 56601), UniProt Q8F7V4) (assay: Inhibition Assay).
T1 sequence (Q8F7V4 whole entry): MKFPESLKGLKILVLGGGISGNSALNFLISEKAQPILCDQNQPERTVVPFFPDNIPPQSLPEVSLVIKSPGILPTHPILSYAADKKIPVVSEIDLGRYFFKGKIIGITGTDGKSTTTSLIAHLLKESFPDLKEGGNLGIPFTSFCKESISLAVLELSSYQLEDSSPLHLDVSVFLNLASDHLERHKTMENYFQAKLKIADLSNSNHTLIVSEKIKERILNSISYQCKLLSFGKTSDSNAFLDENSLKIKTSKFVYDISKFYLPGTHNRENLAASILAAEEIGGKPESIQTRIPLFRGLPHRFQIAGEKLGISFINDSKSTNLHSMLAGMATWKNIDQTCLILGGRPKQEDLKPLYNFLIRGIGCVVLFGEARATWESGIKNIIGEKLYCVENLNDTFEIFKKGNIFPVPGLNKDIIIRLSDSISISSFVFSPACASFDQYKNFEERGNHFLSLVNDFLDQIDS
Text: Inhibiton assay using MurgD.
`O=C(O)c1cc(C(=O)O)cc(-c2ccc(/C=C3\SC(=S)N(c4ccc5c(c4)OCO5)C3=O)o2)c1` [Benzene 1,3-dicarvboxylic acid inhibitor] was tested, and the pIC50 was 3.57. With `C[C@@H](NC(=O)C=Cc1ccc2c(c1)OCO2)P(=O)(O)CC(CCC(=O)O)C(=O)O` (stereo partly drawn) [Phosphinate inhibitor 1] the pIC50 was 4.02. `C[C@H](NS(=O)(=O)Cc1ccc([N+](=O)[O-])cc1)C(=O)N[C@@H](C)P(=O)(O)CC(CCC(=O)O)C(=O)O` (stereo partly drawn) [Phosphinate inhibitor 2] showed a pIC50 of 4.11.
